In patent US4777167A, “Pharmaceutically useful substituted thiacycloalkeno [3,2-b]pyridines, compositions and method of use” (Ortho Pharmaceutical Corporation, priority 1987, dated 1988) one finds inhibition and IC50 data, which are given here for 8 molecules.

Molecules are shown by their SMILES.

In one assay the test system is trachealis muscle. Put plainly: Inhibition of calcium dependent smooth muscle contraction (KCl-challenged trachea). It counts as cell-based, dog. The following applies: Canis lupus familiaris, Table II; for inhibition at 0.1 µM: concentration 0.1 μM; for inhibition at 1 µM: concentration 1.0 μM. The method, then:
The test for inhibition of calcium dependent smooth muscle contraction is determined according to the following procedure:
Trachea from dogs sacrificed by excess KCl injection are stored overnight at 4° C. in oxygenated Krebs-Henseleit buffer. Tracheal rings, one cartilage segment wide (5-10 mm), are cut starting from the bronchial end. After cutting the cartilage, the trachealis muscle tissue is suspended in oxygenated Krebs-Henseleit buffer at 37° C. in a 25 ml tissue bath. After a 60 minutes equilibration period, the tissues are challenged with 10 μM carbachol. After 5 minutes the tissues are rinsed and allowed to rest 50 minutes. The tissues are then challenged with 50 mM KCl and, after 30 minutes, the contractions are quantitated. The tissues are then rinsed and reequilibrated for 50 minutes. Test compounds are then added for 10 minutes, and the tissue is rechallenged with 50 mMKcl. After 30 minutes, the contraction is recorded and used to determine the % inhibition of control.
The percent inhibition of smooth muscle contraction is calculated from response data before and after drug treatment. [formula] A rating is assigned to the compound depending upon the percent inhibition obtained.

The next assay has as its target T1, calcium channels (Oryctolagus cuniculus, UniProt P15381).
T1 construct: from tissue; host or cells: heart of female New Zealand white rabbits, membrane fraction (42,000×g pellet)
Put plainly: Inhibition of nitrendipine binding (3H-nitrendipine displacement, rabbit heart membranes). Details: species or system rabbit (New Zealand white). To be noted: Table II, 90 min, 4° C. The method, then: (1) Inhibition of nitrendipine binding to calcium channels.
The assay for inhibition of nitrendipine binding follows the following procedure:
Female, New Zealand white rabbits (1-2 kg) are sacrificed by cervical dislocation, and the heart is immediately removed, cleaned, and chopped into small pieces. The tissue is homogenized in 5× volume of 0.05M Hepes buffer, pH 7.4. The homogenate is centrifuged at 4000×g for 10 minutes; the supernatant is recentrifuged at 42,000×g for 90 minutes. The resulting membrane pellet is resuspended (0.7 ml/g weight) in 0.05M Hepes, pH 7.4 and stored at -70° C. until used. Each tube of the binding assay contains ^3 H- nitrendipine (0.05-0.50 nM), buffer, membranes (0.10 ml), and test compound in a total volume of 1.0 ml. After 90 minutes at 4° C., the bound nitrendipine is separated from the unbound by filtration on Whatman GF/C fibers. After rinsing, the filters are dried and counted in a liquid scintillation counter.
Non-specific binding of ^3 H-nitrendipine (that amount bound in the presence of excess unlabelled nitrendipine) is subtracted from the total bound to obtain specifically bound radiolabeled nitrendipine. The amount of specifically bound nitrendipine in the presence of a test compound is compared to that amount bound in the absence of a compound. A percent displacement (or inhibition) can then be obtained.

The test system of another assay is Aorta Muscle. Briefly: Inhibition of aorta muscle contraction. In kind it is cell-based. The following applies: Table II; concentration 0.1 μM.
Setting [1] is: read-out: Inhibition Trachea Muscle Contraction % Inhibition.

T1 sequence (P15381 whole entry, other chains not shown): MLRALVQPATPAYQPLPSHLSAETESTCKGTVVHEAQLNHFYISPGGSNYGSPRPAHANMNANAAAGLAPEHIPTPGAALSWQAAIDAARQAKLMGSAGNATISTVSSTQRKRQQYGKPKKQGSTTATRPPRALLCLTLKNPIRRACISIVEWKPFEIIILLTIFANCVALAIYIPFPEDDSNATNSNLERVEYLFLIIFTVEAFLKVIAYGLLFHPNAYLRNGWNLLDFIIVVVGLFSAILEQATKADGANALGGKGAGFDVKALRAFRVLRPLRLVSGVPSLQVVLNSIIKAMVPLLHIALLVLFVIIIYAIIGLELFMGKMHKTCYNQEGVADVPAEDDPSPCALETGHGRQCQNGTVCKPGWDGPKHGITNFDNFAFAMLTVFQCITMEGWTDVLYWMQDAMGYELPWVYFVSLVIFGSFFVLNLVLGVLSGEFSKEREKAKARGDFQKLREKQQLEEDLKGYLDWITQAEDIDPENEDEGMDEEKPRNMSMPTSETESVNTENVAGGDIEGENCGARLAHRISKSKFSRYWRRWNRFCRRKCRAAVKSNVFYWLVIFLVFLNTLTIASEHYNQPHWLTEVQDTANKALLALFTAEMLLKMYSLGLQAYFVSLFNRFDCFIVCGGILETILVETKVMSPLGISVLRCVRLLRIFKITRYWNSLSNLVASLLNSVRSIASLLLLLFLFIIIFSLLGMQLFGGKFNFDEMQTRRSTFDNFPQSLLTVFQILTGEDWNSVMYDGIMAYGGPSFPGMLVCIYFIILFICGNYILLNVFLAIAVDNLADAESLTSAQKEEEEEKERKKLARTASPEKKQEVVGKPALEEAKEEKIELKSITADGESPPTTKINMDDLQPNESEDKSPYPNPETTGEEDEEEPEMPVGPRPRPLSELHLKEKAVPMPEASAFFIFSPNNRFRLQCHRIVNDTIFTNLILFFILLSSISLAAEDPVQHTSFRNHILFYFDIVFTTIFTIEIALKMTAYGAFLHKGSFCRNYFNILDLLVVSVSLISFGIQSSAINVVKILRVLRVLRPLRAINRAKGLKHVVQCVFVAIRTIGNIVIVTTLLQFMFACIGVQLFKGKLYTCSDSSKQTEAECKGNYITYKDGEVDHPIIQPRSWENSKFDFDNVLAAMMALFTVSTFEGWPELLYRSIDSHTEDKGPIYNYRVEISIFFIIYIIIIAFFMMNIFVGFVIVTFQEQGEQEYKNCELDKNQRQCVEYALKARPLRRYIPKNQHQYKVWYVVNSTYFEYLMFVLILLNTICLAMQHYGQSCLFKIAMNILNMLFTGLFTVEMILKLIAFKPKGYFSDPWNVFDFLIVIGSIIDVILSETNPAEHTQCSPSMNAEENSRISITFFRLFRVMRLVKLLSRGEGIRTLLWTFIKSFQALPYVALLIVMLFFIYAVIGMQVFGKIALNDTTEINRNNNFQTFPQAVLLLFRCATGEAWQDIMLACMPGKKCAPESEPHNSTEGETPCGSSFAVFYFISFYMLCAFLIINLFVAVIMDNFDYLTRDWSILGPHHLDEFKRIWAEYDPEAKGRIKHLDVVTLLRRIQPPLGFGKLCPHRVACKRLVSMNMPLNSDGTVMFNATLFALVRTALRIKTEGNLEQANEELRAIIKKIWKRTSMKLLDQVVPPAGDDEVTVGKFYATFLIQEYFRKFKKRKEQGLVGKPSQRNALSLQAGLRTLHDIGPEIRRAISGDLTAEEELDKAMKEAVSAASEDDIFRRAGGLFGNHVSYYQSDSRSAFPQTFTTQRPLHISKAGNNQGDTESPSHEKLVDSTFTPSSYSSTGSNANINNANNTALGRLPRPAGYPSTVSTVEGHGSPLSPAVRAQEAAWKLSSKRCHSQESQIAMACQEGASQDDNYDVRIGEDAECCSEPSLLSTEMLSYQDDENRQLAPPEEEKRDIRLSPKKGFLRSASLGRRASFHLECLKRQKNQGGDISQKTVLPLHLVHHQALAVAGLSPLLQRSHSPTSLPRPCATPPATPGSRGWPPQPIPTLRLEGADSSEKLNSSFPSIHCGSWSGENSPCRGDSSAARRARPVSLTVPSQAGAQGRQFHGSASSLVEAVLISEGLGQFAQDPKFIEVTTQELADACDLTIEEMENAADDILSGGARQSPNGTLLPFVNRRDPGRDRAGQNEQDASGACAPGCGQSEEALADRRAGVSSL
T1 sequence (P13806 27-960 partner limits assumed, other chains not shown): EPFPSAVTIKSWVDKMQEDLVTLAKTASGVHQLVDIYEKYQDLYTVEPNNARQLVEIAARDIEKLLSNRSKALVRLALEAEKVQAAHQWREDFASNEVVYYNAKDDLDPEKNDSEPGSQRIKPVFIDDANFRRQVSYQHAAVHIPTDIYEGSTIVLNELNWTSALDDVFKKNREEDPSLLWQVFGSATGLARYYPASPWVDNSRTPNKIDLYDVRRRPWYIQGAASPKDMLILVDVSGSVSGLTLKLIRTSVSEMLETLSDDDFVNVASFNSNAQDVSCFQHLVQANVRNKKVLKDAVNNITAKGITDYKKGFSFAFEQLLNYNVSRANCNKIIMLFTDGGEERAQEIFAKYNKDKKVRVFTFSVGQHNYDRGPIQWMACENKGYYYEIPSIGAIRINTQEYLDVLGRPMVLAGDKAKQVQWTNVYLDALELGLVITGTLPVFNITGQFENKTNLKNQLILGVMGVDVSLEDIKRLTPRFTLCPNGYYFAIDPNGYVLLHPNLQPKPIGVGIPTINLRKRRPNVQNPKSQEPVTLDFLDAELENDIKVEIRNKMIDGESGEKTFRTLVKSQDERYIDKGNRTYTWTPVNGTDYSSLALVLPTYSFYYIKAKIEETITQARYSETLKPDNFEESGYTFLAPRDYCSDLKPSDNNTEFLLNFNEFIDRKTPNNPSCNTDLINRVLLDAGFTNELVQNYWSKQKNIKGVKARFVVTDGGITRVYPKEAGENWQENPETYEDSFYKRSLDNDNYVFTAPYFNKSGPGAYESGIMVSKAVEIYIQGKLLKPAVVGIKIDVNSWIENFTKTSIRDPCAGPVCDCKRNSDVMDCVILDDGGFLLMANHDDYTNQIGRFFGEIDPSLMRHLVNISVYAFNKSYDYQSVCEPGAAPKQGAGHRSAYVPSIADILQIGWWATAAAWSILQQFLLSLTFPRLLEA
T1 sequence (P13806 961-1106 partner limits assumed, other chains not shown): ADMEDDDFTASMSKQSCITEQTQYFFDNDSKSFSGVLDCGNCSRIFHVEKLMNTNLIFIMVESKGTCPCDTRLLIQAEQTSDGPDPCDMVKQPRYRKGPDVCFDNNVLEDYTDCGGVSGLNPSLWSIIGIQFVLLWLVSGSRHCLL

Take `CC1=C(C(=O)OCCN(C)Cc2ccccc2)C(c2c(Cl)cccc2Cl)C2=C(CCCCS2(=O)=O)N1` (stereo not drawn) [4 2,6-Cl2C6 H3]: the values for the inhibition at 0.1 µM in the assay with trachealis muscle (setting [1]) and in the assay on Aorta Muscle were 55% and 50%, respectively. For the same molecule, the IC50 at calcium channels was determined as 86 nM.

`CC1=C(C(=O)OCCN(C)c2ccccc2)C(c2ccccc2[N+](=O)[O-])C2=C(CCCCS2(=O)=O)N1` (stereo not drawn) [4 2-NO2C6 H4 CH2 CH2 NCH3 C6 H5]: the inhibition at 0.1 µM in the assay on trachealis muscle (setting [1]) stood at 57%; with Aorta Muscle, 43%. Also, the half-maximal inhibitory concentration (IC50) at calcium channels turned out to be 86 nM.

`CC1=C(C(=O)OCCN(C)Cc2ccccc2)C(c2c(F)c(F)c(F)c(F)c2F)C2=C(CCCCCS2(=O)=O)N1` (stereo not drawn) [5 C6 F5, N-Benzyl-N-methylaminoethyl 10-(2,3,4,5,6-pentafluorophenyl)-3,4,5,6,7,10-hexahydro-8-methyl-1,1-dioxo-2H-thiacycloocteno[3,2-b]pyridine-9-carboxylate]: the values for the inhibition at 0.1 µM with trachealis muscle (setting [1]) and in the assay with Aorta Muscle were 50% and 70%, respectively. Besides, the IC50 at calcium channels was determined as 87 nM.

Turning to `CC1=C(C(=O)OCCN(C)Cc2ccccc2)C(c2ccccc2F)C2=C(CCCCS2(=O)=O)N1` (stereo not drawn) [4 2-FC6 H4], the inhibition at 2 µM with trachealis muscle (concentration 2.0 μM, read-out: Inhibition Trachea Muscle Contraction % Inhibition) worked out at 84%. In addition, the IC50 on calcium channels came to 440 nM. In the assay with Aorta Muscle, this molecule had an inhibition at 0.1 µM of 32%.

Take `CC1=C(C(=O)OCCN(C)CCc2ccccc2)C(c2cccc(Cl)c2Cl)C2=C(CCCCCS2(=O)=O)N1` (stereo not drawn): the inhibition at 1 µM in the assay on trachealis muscle was determined as 57%. Moreover, on calcium channels, the half-inhibitory concentration (IC50) was 149 nM. The molecule also had an inhibition at 0.1 µM with Aorta Muscle of 67%.

As for `CC1=C(C(=O)OCCN2CCc3ccccc32)C(c2cccc([N+](=O)[O-])c2)C2=C(CCCCS2(=O)=O)N1` (stereo not drawn) [4 3-NO2C6 H4 drawing 9], the inhibition at 1 µM with trachealis muscle was 56%. In addition, the IC50 at calcium channels came out at 100 nM. In the assay with Aorta Muscle, this molecule gave an inhibition at 0.1 µM of 80%.

In the case of `CC1=C(C(=O)OCCN(C)Cc2ccccc2)C(c2cccc(Cl)c2Cl)C2=C(CCCCCS2(=O)=O)N1` (stereo not drawn) [5 2,3-Cl2C6 H3], the inhibition at 0.1 µM in the assay on trachealis muscle (setting [1]) was 26%; in the assay on Aorta Muscle it was 58%. Also, the concentration for half-maximal inhibition (IC50) at calcium channels worked out at 75 nM.

As for `CC1=C(C(=O)OCCNc2ccccc2)C(c2cccc([N+](=O)[O-])c2)C2=C(CCCCS2(=O)=O)N1` (stereo not drawn) [4 3-NO2C6 H4 CH2 CH2 NHC6 H5], in the assay on trachealis muscle, the inhibition at 1 µM turned out to be 72%. Also, the IC50 on calcium channels was found to be 16 nM. This molecule had an inhibition at 0.1 µM in the assay with Aorta Muscle of 48%.

In general, inhibition refers to the relative decrease from the control value, in per cent. For orientation: IC50 means the concentration that inhibits the measured activity by half.
